This is an account of results in patent publication US5935973A, “Heterocyclcarboxamide derivatives and their use as therapeutic agents” (Knoll Aktiengesellschaft, priority 1995, dated 1999).

The first assay concerns the target T1, α2A-adrenoceptors (Homo sapiens, UniProt P08913).
T1 construct: Human cerebral cortex obtained at post-mortem; from tissue; host or cells: human post-mortem cerebral cortex membranes
T1 sequence (P08913 1-465): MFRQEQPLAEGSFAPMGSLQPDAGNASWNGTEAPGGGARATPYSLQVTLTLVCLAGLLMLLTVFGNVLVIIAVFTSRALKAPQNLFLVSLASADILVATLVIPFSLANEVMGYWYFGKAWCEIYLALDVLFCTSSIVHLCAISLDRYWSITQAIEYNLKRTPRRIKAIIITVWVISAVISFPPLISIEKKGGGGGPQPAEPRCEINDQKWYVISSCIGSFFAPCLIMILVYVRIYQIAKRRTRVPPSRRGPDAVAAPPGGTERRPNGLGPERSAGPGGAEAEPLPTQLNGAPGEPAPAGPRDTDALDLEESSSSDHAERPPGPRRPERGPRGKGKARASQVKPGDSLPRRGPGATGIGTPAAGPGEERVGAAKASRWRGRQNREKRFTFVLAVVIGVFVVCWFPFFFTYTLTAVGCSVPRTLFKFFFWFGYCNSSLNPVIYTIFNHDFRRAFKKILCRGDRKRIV
Description: inhibition of tritiated RX 821002 binding to α2A-adrenoceptors in human cerebral cortex. The settings on record: at 10^-6 M, tritiated RX 821002, read-out: % displacement of radio ligand, α2A. The procedure: Human cerebral cortex obtained at post-mortem was homogenised in ice-cold 0.25M sucrose (1:30 w/v) and centrifuged at 1,000 g at 4° C. for 12 minutes. The supernatant was stored on ice and the pellet was rehomogenised in 0.25M sucrose (1:15 w/v) and centrifuged at 850 g at 4° C. for 12 minutes. Combined supernatants were diluted with 5mM Tris-HCl (pH 7.5) containing 5 mM ethylenediamine tetraacetic acid (EDTA), readjusted to pH 7.5 (at 25° C.) with 1M sodium hydroxide to 1:80 w/v, and centrifuged at 11,000 g at 4° C. for 10 minutes. The resulting pellet was resuspended in 50 mM Tris-HCl (pH 7.5) containing 5.68 mM L-ascorbic acid and 0.5 mM EDTA, readjusted to pH 7.5 (at 25° C.) with 1 M sodium hydroxide to 1:80 w/v, and centrifuged at 11,000 g for 10 minutes. The pellet was stored at -80° C. On the day of the assay the pellet was thawed, resuspended in 50 mM Tris-HCl (pH 7.5) containing 5.68 mM L-ascorbic acid and 5 mM EDTA to 1:80 w/v and centrifuged at 11,000 g for 10 minutes. The final pellet was resuspended in 50 mM Tris-HCl (pH 7.5) containing 5.68 mM L-ascorbic acid and 5 mM EDTA (equivalent to 25 mg wet weight of tissue/ml).
Aliquots (400 μl; equivalent to 10 mg wet weight of tissue/tube) of this suspension were added to tubes containing the ligand (50 μl; 0.2 nM) and distilled water (50 μl; total binding) or phentolamine (50 μl; 50 μM; non-specific binding) or test compound (50 μl; at a single concentration of 10^-6 M or at 10 concentrations ranging from 10^-11 -10^-3 M). The ligand was tritiated RX 821002 (2-(2-methoxy-1,4-[6,7(n)-^3 H]benzodioxan-2-yl)-2-imidazoline) and the mixture was incubated at 0° C. for 75 minutes before the incubation was terminated by rapid filtration.
The filters were washed with ice-cold Tris-HCl buffer and dried. The filters were punched out into vials, scintillation fluid added and radioactivity determined by liquid scintillation counting. The percentage displacement of specific binding of the tritiated ligand was calculated for the single concentration (10^-6 M) of test compound. Displacement curves were then produced for those compounds which displaced ≥50% of specific binding of the tritiated ligand at 10^-6 M using a range of concentrations of the compound. The concentration which gave 50% inhibition of specific binding (IC50)was obtained from the curve. The inhibition coefficient Ki was then calculated using the formula [formula] in which [ligand] is the concentration of the tritiated ligand used and KD is the equilibrium dissociation constant for the ligand.
With `COc1cccc2c1OC(CN1CCC(CNC(=O)c3cccnc3N)CC1)CO2` (stereo not drawn) [Example 11, 2-amino-N-{[1-(8-methoxy-1,4-benzodioxan-2-ylmethyl)-4-piperidyl]methyl}pyridine-3-carboxamide], the inhibition at 1 µM came to 99%.
Still for that read-out and setting: the value for `Nc1ccsc1C(=O)NCC1CCN(C[C@H]2COc3ccc(Cl)cc3O2)CC1` [Example 17, (S)-3-amino-N-{[1-(7-chloro-1,4-benzodioxan-2-ylmethyl)-4-piperidyl]methyl}thiophene-2-carboxamide] was 99%; that for `O=C(NCC1CCN(C[C@H]2COc3ccc(Cl)cc3O2)CC1)c1ccccn1` [Example 12, (S)-N-{[1-(7-chloro-1,4-benzodioxan-2-ylmethyl)-4-piperidyl]methyl}pyridine-2-carboxamide] was 99%.
In the case of `O=C(NCC1CCN(C[C@H]2COc3ccc(Cl)cc3O2)CC1)c1cccc2cccnc12` [Example 23, (S)-N-{[1-(7-chloro-1,4-benzodioxan-2-ylmethyl)-4-piperidyl]methyl}quinoline-8-carboxamide], the inhibition at 1 µM is 98%.
The same measure, in the same setting: the figure for `Nc1ccsc1C(=O)NCC1CCN(CC2COc3ccccc3O2)CC1` (stereo not drawn) [Example 16, 3-amino-N-{[1-(1,4-benzodioxan-2-ylmethyl)-4-piperidyl]methyl}thiophene-2-carboxamide] is 100%; for `Nc1ncccc1C(=O)NCC1CCN(C[C@H]2COc3cccc(C(F)(F)F)c3O2)CC1` [Example 20, (S)-2-amino-N-{[1-(8-trifluoromethyl-1,4-benzodioxan-2-ylmethyl)-4-piperidyl]methyl}pyridine-3-carboxamide] it is 101%.
Consider `Nc1ncccc1C(=O)NCC1CCN(CC2COc3ccc(F)cc3O2)CC1` (stereo not drawn) [Example 10, 2-amino-N-{[1-(7-fluoro-1,4-benzodioxan-2-ylmethyl)-4-piperidyl]methyl}pyridine-3-carboxamide], for which the inhibition at 1 µM stood at 100%.
Consider `O=C(NCC1CCN(C[C@H]2COc3ccc(Cl)cc3O2)CC1)c1cccnc1` [Example 22, (S)-N-{[1-(7-chloro-1,4-benzodioxan-2-ylmethyl)-4-piperidyl]methyl}pyridine-3-carboxamide], for which the inhibition at 1 µM is 99%.
On the same count and under the same terms, the figure for `Cc1ncccc1C(=O)NCC1CCN(C[C@H]2COc3cccc(Cl)c3O2)CC1` [Example 9, (S)-N-{[1-(8-chloro-1,4-benzodioxan-2-ylmethyl)-4-piperidyl]methyl}-2-methylpyridine-3-carboxamide] is 99%; for `Cc1ccc2c(c1)O[C@@H](CN1CCC(CNC(=O)c3cccnc3N)CC1)CO2` [Example 5, (S)-2-amino-N-{[1-(7-methyl-1,4-benzodioxan-2-ylmethyl)-4-piperidyl]methyl}pyridine-3-carboxamide] it is 98%; for `Cc1cccc2c1O[C@@H](CN1CCC(CNC(=O)c3cccnc3N)CC1)CO2` [Example 13, (S)-2-amino-N-{[1-(8-methyl-1,4-benzodioxan-2-ylmethyl)-4-piperidyl]methyl}pyridine-3-carboxamide] it is 100%.
On to `O=C(NCC1CCN(CC2COc3ccccc3O2)CC1)c1ccccn1` (stereo not drawn) [Example 6, N-{[1-(1,4-benzodioxan-2-ylmethyl)-4-piperidyl]methyl}pyridine-2-carboxamide], for which the inhibition at 1 µM was 100%.
Take `Nc1ncccc1C(=O)NCC1CCN(C[C@H]2COc3ccccc3O2)CC1` [Example 15, (S)-2-amino-N-{[1-(1,4-benzodioxan-2-ylmethyl)-4-piperidyl]methyl}pyridine-3-carboxamide]: the inhibition at 1 µM was 100%.
With `O=C(NCC1CCN(CC2COc3ccccc3O2)CC1)c1cccc2cccnc12` (stereo not drawn) [Example 8, N-{[1-(1,4-benzodioxan-2-ylmethyl)-4-piperidyl]methyl}quinoline-8-carboxamide], the inhibition at 1 µM turned out to be 99%.

Staying with this assay, now noted: tritiated RX 821002 0.2 nM, 0° C., 75 min.
As for `COc1ccc2c(c1)O[C@@H](CN1CCC(CNC(=O)c3cccnc3N)CC1)CO2` [Example 7, (S)-2-amino-N{[1-(7-methoxy-1,4-benzodioxan-2-ylmethyl)-4-piperidyl]methyl}-pyridine-3-carboxamide], the Ki came to 2.8 nM.
